These are literature values, as cited in article PMC8330515 (Bioorganic & medicinal chemistry letters, 2020).

As a reminder, the IC50 is the concentration that gives 50% inhibition.

This data set relates to normal prostate epithelial cells. Conditions: read-out: 24 h IC50 in normal prostate epithelial cells.

SMILES strings stand for the structures.

As to `CCN(CC)C(=S)SCc1ccc(NC(=O)CC[C@H](N)C(=O)O)cc1` [GGTDTC], the IC50 is above 15 µM.
